# In patent US20080139628A1 (ARENA PHARMACEUTICALS, INC., priority 2004, published 2008):
# Columns and labels:
# [1] = system: niacin-induced flushing in mice; assay: Block of niacin-induced flushing in mice, Laser Dopler; type: in vivo; details: for change from baseline (flush) at 3 minutes / change above baseline (flush) at 15 minutes: mice given compound about 10 minutes before niacin; for change from baseline (flush) at 3 minutes: 3 minutes after niacin; for change above baseline (flush) at 15 minutes: at/within 15 minutes after niacin
# Description: Flushing was measured using a Laser Dopler.
# In these experiments, the control group contained anesthetized mice that were administered niacin alone and flushing above baseline was measured over time. […]
# [2] = system: free fatty acid release; assay: NEFA competition: free fatty acids in blood of mice (NEFA-C assay kit); type: in vivo; details: for concentration of free fatty acid: blood after 10 minutes (vehicle sample 0.9 mM)
# Description: After 10 minutes the mice were euthanized and blood was collected. The blood samples were processed and tested for free fatty acid release using the non-esterified fatty-acid (NEFA) assay (the NEFA-C assay kit from Waco Chemicals USA, Richmond, Va.).
# [3] = system: mice; assay: Flush in response to PGD2 in mice treated with niacin receptor partial agonist; type: in vivo; details: mice pretreated with Compound 1 and niacin
# Description: After re-establishment of baseline, PGD2 was administered and flushing was recorded. […] Baseline was then re-established at 20% above baseline and PGD2 was administered.
# [4] = system: dysmenorrhea or painful menstruation; details: 80 women, 100 mg niacin twice daily, then every 2 to 3 hours during heavy cramps; cited from earlier work
compound,measurement,setting,value
"C1Cc2[nH]nc(-c3nnn[nH]3)c2C1 [Compound 1, 3-(1H-Tetrazol-5-yl)-1,4,5,6-tetrahydro-cyclopentapyrazole]",change from baseline (flush) at 3 minutes,[1],10%
same,change above baseline (flush) at 15 minutes,[1],about 20%
same,flushing induced by niacin,"[1]; mice, partial agonist given prior to niacin",significantly reduced
same,interference with the reduction in free fatty acids induced by niacin,[2]; Compound 1 plus niacin,does not interfere
same,concentration of free fatty acid,[2]; Compound 1 plus niacin,0.38 mM
"O=C(O)c1cc(Cc2cccc(F)c2)[nH]n1 [Compound 2, 5-(3-Fluoro-benzyl)-1H-pyrazole-3-carboxylic acid]",change from baseline (flush) at 3 minutes,[1],0%
same,change above baseline (flush) at 15 minutes,[1],about 15%
"O=C(O)c1cc(Cc2cccc(Cl)c2)[nH]n1 [Compound 3, 5-(3-Chloro-benzyl)-1H-pyrazole-3-carboxylic acid]",change from baseline (flush) at 3 minutes,[1],about 18%
same,change above baseline (flush) at 15 minutes,[1],about 13%
"O=C(O)c1cc(Cc2cccc(Br)c2)[nH]n1 [Compound 4, 5-(3-Bromo-benzyl)-1H-pyrazole-3-carboxylic acid]",change from baseline (flush) at 3 minutes,[1],15%
same,change above baseline (flush) at 15 minutes,[1],about 30%
"CCCCC[C@H](O)/C=C/[C@H]1C(=O)C[C@H](O)[C@@H]1C/C=C\CCCC(=O)O [PGD2, prostaglandin D2]",time of flush peak after PGD2 administration,[3],about 6 minutes
same,time after PGD2 administration at which flushing began,[3]; baseline re-established at 20% above baseline,about 1.5 minutes
same,"flush peak, % of the original baseline",[3]; about 6 minutes after PGD2,about 70%
"O=C(O)c1cccnc1 [niacin, nicotinic acid, reference compound]",time after which mice began to flush,"[1]; anesthetized mice, niacin alone",1.5 min
same,concentration of free fatty acid,[2]; vehicle plus niacin,0.4 mM
same,subjects who experienced significant relief,[4],About 90%
